ChEMBL document CHEMBL1132169 (J Med Chem, 1999)

Columns and labels:
[1] = biological target: T1, Sodium-dependent dopamine transporter (Rattus norvegicus, UniProt P23977); experiment: Inhibition of dopamine uptake into rat striatal tissue, using [3H]- dopamine as the radioligand.; format: tissue-based, Striatum
[2] = biological target: T1, Sodium-dependent dopamine transporter; experiment: Inhibitory binding activity against rat striatal tissue using [3H][…] as the radioligand.; format: tissue-based, Striatum
[3] = biological target: Sodium-dependent dopamine transporter (Rattus norvegicus) (UniProt P23977); experiment: Discrimination ratio of compound is the ratio of inhibitory activity against [3H]dopamine uptake over [3H][…] binding
Sodium-dependent dopamine transporter (Rattus norvegicus), sequence (P23977 whole entry): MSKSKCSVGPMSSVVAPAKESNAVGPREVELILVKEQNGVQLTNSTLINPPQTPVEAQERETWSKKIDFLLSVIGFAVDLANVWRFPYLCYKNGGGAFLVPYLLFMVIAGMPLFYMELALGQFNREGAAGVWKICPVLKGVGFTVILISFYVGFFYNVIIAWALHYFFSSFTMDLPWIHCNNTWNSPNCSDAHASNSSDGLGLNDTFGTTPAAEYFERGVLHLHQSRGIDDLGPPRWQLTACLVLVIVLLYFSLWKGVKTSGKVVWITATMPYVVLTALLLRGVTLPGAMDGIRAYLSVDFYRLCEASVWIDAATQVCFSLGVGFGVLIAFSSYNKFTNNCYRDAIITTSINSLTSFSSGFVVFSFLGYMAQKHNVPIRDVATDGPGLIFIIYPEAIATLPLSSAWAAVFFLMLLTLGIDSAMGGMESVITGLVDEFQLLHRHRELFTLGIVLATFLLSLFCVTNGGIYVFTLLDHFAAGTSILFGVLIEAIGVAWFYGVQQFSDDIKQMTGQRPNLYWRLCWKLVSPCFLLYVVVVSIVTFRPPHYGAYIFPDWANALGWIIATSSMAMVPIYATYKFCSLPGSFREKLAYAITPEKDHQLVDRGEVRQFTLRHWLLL

T1 sequence (P23977 whole entry): as above

In the case of `COc1ccc(C2C3CCC(CC3)C2CN(C)C)cc1` (stereo not given), the IC50 [1] is reported as 1.43 µM, the IC50 [2] is reported as 0.38 µM and the Discrimination ratio [3] is reported as 3.8.
With `COc1ccc(C2C3CCC(CC3)C2CN)cc1` (stereo not given) the IC50 [1] was 1.5 µM, the IC50 [2] was 0.249 µM and the Discrimination ratio [3] was 6.
For `NCC1C2CCC(CC2)C1c1ccc(N)cc1` (stereo not given), the IC50 [1] was 0.704 µM, the IC50 [2] was 0.16 µM and the Discrimination ratio [3] was 4.4.
In the case of `NCC1C2CCC(CC2)C1c1ccccc1` (stereo in doubt; 5a) [listing 1 of 2 here], the IC50 [1] is reported as 5.93 µM and the IC50 [2] is reported as 1.2 µM.
Work on `NCC1C2CCC(CC2)C1c1ccccc1` (stereo in doubt; 5a) [listing 2 of 2 here] yielded a Discrimination ratio [3] of 5.
`NCC1C2CCC(CC2)C1c1cccc(Cl)c1` (stereo in doubt; 5b) [listing 1 of 2 here] was tested, and the IC50 [1] was 0.96 µM and the IC50 [2] was 0.204 µM.
Compound `NCC1C2CCC(CC2)C1c1cccc(Cl)c1` (stereo in doubt; 5b) [listing 2 of 2 here] has a Discrimination ratio [3] of 4.7.
`NCC1C2CCC(CC2)C1c1ccc(Cl)cc1` (stereo in doubt; 5c) [listing 1 of 2 here] gave an IC50 [1] of 0.375 µM and an IC50 [2] of 0.0714 µM.
`NCC1C2CCC(CC2)C1c1ccc(Cl)cc1` (stereo in doubt; 5c) [listing 2 of 2 here] showed a Discrimination ratio [3] of 5.2.
Compound `NCC1C2CCC(CC2)C1c1ccc(Cl)c(Cl)c1` (stereo in doubt; 5d) [listing 1 of 2 here] has an IC50 [1] of 0.0975 µM and an IC50 [2] of 0.0375 µM.
With `NCC1C2CCC(CC2)C1c1ccc(Cl)c(Cl)c1` (stereo in doubt; 5d) [listing 2 of 2 here] the Discrimination ratio [3] was 2.6.
With `CN(C)CC1C2CCC(CC2)C1c1ccccc1` (stereo in doubt; 6a) [listing 1 of 2 here] the IC50 [1] was 0.84 µM and the IC50 [2] was 0.191 µM.
`CN(C)CC1C2CCC(CC2)C1c1ccccc1` (stereo in doubt; 6a) [listing 2 of 2 here] gave a Discrimination ratio [3] of 4.4.
`CN(C)CC1C2CCC(CC2)C1c1cccc(Cl)c1` (stereo in doubt; 6b) [listing 1 of 2 here] showed an IC50 [1] of 0.186 µM and an IC50 [2] of 0.0368 µM.
With `CN(C)CC1C2CCC(CC2)C1c1cccc(Cl)c1` (stereo in doubt; 6b) [listing 2 of 2 here] the Discrimination ratio [3] was 5.1.
`CN(C)CC1C2CCC(CC2)C1c1ccc(Cl)c(Cl)c1` (stereo in doubt; 6d) [listing 1 of 2 here] gave an IC50 [1] of 0.0563 µM and an IC50 [2] of 0.0213 µM.
`CN(C)CC1C2CCC(CC2)C1c1ccc(Cl)c(Cl)c1` (stereo in doubt; 6d) [listing 2 of 2 here] showed a Discrimination ratio [3] of 2.6.
With `NCC1C2CCC(CC2)C1c1ccccc1` (stereo in doubt; 7a) [listing 1 of 2 here] the IC50 [1] was 1.48 µM and the IC50 [2] was 0.27 µM.
`NCC1C2CCC(CC2)C1c1ccccc1` (stereo in doubt; 7a) [listing 2 of 2 here] showed a Discrimination ratio [3] of 5.5.
In the case of `NCC1C2CCC(CC2)C1c1cccc(Cl)c1` (stereo in doubt; 7b) [listing 1 of 2 here], the IC50 [1] is reported as 0.43 µM and the IC50 [2] is reported as 0.117 µM.
Compound `NCC1C2CCC(CC2)C1c1cccc(Cl)c1` (stereo in doubt; 7b) [listing 2 of 2 here] has a Discrimination ratio [3] of 3.7.
With `NCC1C2CCC(CC2)C1c1ccc(Cl)cc1` (stereo in doubt; 7c) [listing 1 of 2 here] the IC50 [1] was 0.0683 µM and the IC50 [2] was 0.0129 µM.
With `NCC1C2CCC(CC2)C1c1ccc(Cl)cc1` (stereo in doubt; 7c) [listing 2 of 2 here] the Discrimination ratio [3] was 5.3.
`NCC1C2CCC(CC2)C1c1ccc(Cl)c(Cl)c1` (stereo in doubt; 7d) [listing 1 of 2 here] gave an IC50 [1] of 0.034 µM and an IC50 [2] of 0.0215 µM.
Compound `NCC1C2CCC(CC2)C1c1ccc(Cl)c(Cl)c1` (stereo in doubt; 7d) [listing 2 of 2 here] has a Discrimination ratio [3] of 1.6.
`CN(C)CC1C2CCC(CC2)C1c1ccccc1` (stereo in doubt; 8a) [listing 1 of 2 here] showed an IC50 [1] of 0.98 µM and an IC50 [2] of 0.313 µM.
With `CN(C)CC1C2CCC(CC2)C1c1ccccc1` (stereo in doubt; 8a) [listing 2 of 2 here] the Discrimination ratio [3] was 3.1.
Compound `CN(C)CC1C2CCC(CC2)C1c1cccc(Cl)c1` (stereo in doubt; 8b) [listing 1 of 2 here] has an IC50 [1] of 0.283 µM and an IC50 [2] of 0.086 µM.
For `CN(C)CC1C2CCC(CC2)C1c1cccc(Cl)c1` (stereo in doubt; 8b) [listing 2 of 2 here], the Discrimination ratio [3] was 3.3.
For `CN(C)CC1C2CCC(CC2)C1c1ccc(Cl)c(Cl)c1` (stereo in doubt; 8d) [listing 1 of 2 here], the IC50 [1] was 0.0293 µM and the IC50 [2] was 0.0142 µM.
`CN(C)CC1C2CCC(CC2)C1c1ccc(Cl)c(Cl)c1` (stereo in doubt; 8d) [listing 2 of 2 here] showed a Discrimination ratio [3] of 2.1.
Work on `NCC1C2CCC(C2)C1c1ccccc1` (stereo in doubt; 9a) [listing 1 of 2 here] yielded an IC50 [1] of 2.22 µM and an IC50 [2] of 0.34 µM.
`NCC1C2CCC(C2)C1c1ccccc1` (stereo in doubt; 9a) [listing 2 of 2 here] showed a Discrimination ratio [3] of 6.5.
`NCC1C2CCC(C2)C1c1cccc(Cl)c1` (stereo in doubt; 9b) [listing 1 of 2 here] was tested, and the IC50 [1] was 0.758 µM and the IC50 [2] was 0.149 µM.
`NCC1C2CCC(C2)C1c1cccc(Cl)c1` (stereo in doubt; 9b) [listing 2 of 2 here] gave a Discrimination ratio [3] of 5.1.
`NCC1C2CCC(C2)C1c1ccc(Cl)cc1` (stereo in doubt; 9c) [listing 1 of 2 here] gave an IC50 [1] of 0.23 µM and an IC50 [2] of 0.046 µM.
`NCC1C2CCC(C2)C1c1ccc(Cl)cc1` (stereo in doubt; 9c) [listing 2 of 2 here] was tested, and the Discrimination ratio [3] was 5.
`NCC1C2CCC(C2)C1c1ccc(Cl)c(Cl)c1` (stereo in doubt; 9d) [listing 1 of 2 here] gave an IC50 [1] of 0.058 µM and an IC50 [2] of 0.0116 µM.
`NCC1C2CCC(C2)C1c1ccc(Cl)c(Cl)c1` (stereo in doubt; 9d) [listing 2 of 2 here] gave a Discrimination ratio [3] of 5.
`COc1ccccc1C1C2CCC(C2)C1CN` (stereo in doubt; 9e) [listing 1 of 2 here] showed an IC50 [1] of 36.6 µM and an IC50 [2] of 11.6 µM.
In the case of `COc1ccccc1C1C2CCC(C2)C1CN` (stereo in doubt; 9e) [listing 2 of 2 here], the Discrimination ratio [3] is reported as 3.1.
`COc1cccc(C2C3CCC(C3)C2CN)c1` (stereo in doubt; 9f) [listing 1 of 2 here] gave an IC50 [1] of 29.3 µM and an IC50 [2] of 8.82 µM.
`COc1cccc(C2C3CCC(C3)C2CN)c1` (stereo in doubt; 9f) [listing 2 of 2 here] was tested, and the Discrimination ratio [3] was 3.3.
For `COc1ccc(C2C3CCC(C3)C2CN)cc1` (stereo in doubt; 9g) [listing 1 of 2 here], the IC50 [1] was 5.55 µM and the IC50 [2] was 1.16 µM.
`COc1ccc(C2C3CCC(C3)C2CN)cc1` (stereo in doubt; 9g) [listing 2 of 2 here] was tested, and the Discrimination ratio [3] was 4.8.
With `CN(C)CC1C2CCC(C2)C1c1ccccc1` (stereo in doubt; 10a) [listing 1 of 2 here] the IC50 [1] was 1.1 µM and the IC50 [2] was 0.515 µM.
`CN(C)CC1C2CCC(C2)C1c1ccccc1` (stereo in doubt; 10a) [listing 2 of 2 here] gave a Discrimination ratio [3] of 2.1.
`NCC1C2CCC(C2)C1c1ccccc1` (stereo in doubt; 11a) [listing 1 of 2 here] was tested, and the IC50 [1] was 8.85 µM and the IC50 [2] was 2.9 µM.
Work on `NCC1C2CCC(C2)C1c1ccccc1` (stereo in doubt; 11a) [listing 2 of 2 here] yielded a Discrimination ratio [3] of 3.1.
`NCC1C2CCC(C2)C1c1cccc(Cl)c1` (stereo in doubt; 11b) [listing 1 of 2 here] showed an IC50 [1] of 0.78 µM and an IC50 [2] of 0.239 µM.
Compound `NCC1C2CCC(C2)C1c1cccc(Cl)c1` (stereo in doubt; 11b) [listing 2 of 2 here] has a Discrimination ratio [3] of 3.3.
For `NCC1C2CCC(C2)C1c1ccc(Cl)cc1` (stereo in doubt; 11c) [listing 1 of 2 here], the IC50 [1] was 0.593 µM and the IC50 [2] was 0.207 µM.
`NCC1C2CCC(C2)C1c1ccc(Cl)cc1` (stereo in doubt; 11c) [listing 2 of 2 here] gave a Discrimination ratio [3] of 2.9.
Compound `NCC1C2CCC(C2)C1c1ccc(Cl)c(Cl)c1` (stereo in doubt; 11d) [listing 1 of 2 here] has an IC50 [1] of 0.0936 µM and an IC50 [2] of 0.0327 µM.
For `NCC1C2CCC(C2)C1c1ccc(Cl)c(Cl)c1` (stereo in doubt; 11d) [listing 2 of 2 here], the Discrimination ratio [3] was 2.9.
`COc1ccccc1C1C2CCC(C2)C1CN` (stereo in doubt; 11e) [listing 1 of 2 here] was tested, and the IC50 [1] was 7.86 µM and the IC50 [2] was 1.48 µM.
In the case of `COc1ccccc1C1C2CCC(C2)C1CN` (stereo in doubt; 11e) [listing 2 of 2 here], the Discrimination ratio [3] is reported as 5.3.
Work on `COc1cccc(C2C3CCC(C3)C2CN)c1` (stereo in doubt; 11f) [listing 1 of 2 here] yielded an IC50 [1] of 6.56 µM and an IC50 [2] of 2.01 µM.
`COc1cccc(C2C3CCC(C3)C2CN)c1` (stereo in doubt; 11f) [listing 2 of 2 here] showed a Discrimination ratio [3] of 3.3.
In the case of `COc1ccc(C2C3CCC(C3)C2CN)cc1` (stereo in doubt; 11g) [listing 1 of 2 here], the IC50 [1] is reported as 7.12 µM and the IC50 [2] is reported as 1.7 µM.
`COc1ccc(C2C3CCC(C3)C2CN)cc1` (stereo in doubt; 11g) [listing 2 of 2 here] gave a Discrimination ratio [3] of 4.2.
In the case of `CN(C)CC1C2CCC(C2)C1c1ccccc1` (stereo in doubt; 12a) [listing 1 of 2 here], the IC50 [1] is reported as 4.33 µM and the IC50 [2] is reported as 2.51 µM.
With `CN(C)CC1C2CCC(C2)C1c1ccccc1` (stereo in doubt; 12a) [listing 2 of 2 here] the Discrimination ratio [3] was 1.7.
`NCC1C2CCC(C2)C1c1ccccc1` (stereo in doubt; 13a) [listing 1 of 2 here] showed an IC50 [1] of 3.5 µM and an IC50 [2] of 0.816 µM.
`NCC1C2CCC(C2)C1c1ccccc1` (stereo in doubt; 13a) [listing 2 of 2 here] was tested, and the Discrimination ratio [3] was 4.3.
`NCC1C2CCC(C2)C1c1ccc(Cl)cc1` (stereo in doubt; 13c) [listing 1 of 2 here] showed an IC50 [1] of 0.348 µM and an IC50 [2] of 0.0653 µM.
`NCC1C2CCC(C2)C1c1ccc(Cl)cc1` (stereo in doubt; 13c) [listing 2 of 2 here] gave a Discrimination ratio [3] of 5.3.
`NCC1C2CCC(C2)C1c1ccc(Cl)c(Cl)c1` (stereo in doubt; 13d) [listing 1 of 2 here] gave an IC50 [1] of 0.0987 µM and an IC50 [2] of 0.0213 µM.
Compound `NCC1C2CCC(C2)C1c1ccc(Cl)c(Cl)c1` (stereo in doubt; 13d) [listing 2 of 2 here] has a Discrimination ratio [3] of 4.6.
`COc1ccc(C2C3CCC(C3)C2CN)cc1` (stereo in doubt; 13g) [listing 1 of 2 here] showed an IC50 [1] of 2.26 µM and an IC50 [2] of 0.495 µM.
In the case of `COc1ccc(C2C3CCC(C3)C2CN)cc1` (stereo in doubt; 13g) [listing 2 of 2 here], the Discrimination ratio [3] is reported as 4.6.
Work on `CN(C)CC1C2CCC(C2)C1c1ccccc1` (stereo in doubt; 14a) [listing 1 of 2 here] yielded an IC50 [1] of 2.75 µM and an IC50 [2] of 2.14 µM.
`CN(C)CC1C2CCC(C2)C1c1ccccc1` (stereo in doubt; 14a) [listing 2 of 2 here] was tested, and the Discrimination ratio [3] was 1.3.
In the case of `NCC1C2CCC(C2)C1c1ccccc1` (stereo in doubt; 15a) [listing 1 of 2 here], the IC50 [1] is reported as 0.875 µM and the IC50 [2] is reported as 0.251 µM.
`NCC1C2CCC(C2)C1c1ccccc1` (stereo in doubt; 15a) [listing 2 of 2 here] was tested, and the Discrimination ratio [3] was 3.5.
Work on `NCC1C2CCC(C2)C1c1ccc(Cl)cc1` (stereo in doubt; 15c) [listing 1 of 2 here] yielded an IC50 [1] of 0.0349 µM and an IC50 [2] of 0.0077 µM.
With `NCC1C2CCC(C2)C1c1ccc(Cl)cc1` (stereo in doubt; 15c) [listing 2 of 2 here] the Discrimination ratio [3] was 4.5.
